Source: ChEMBL document CHEMBL5335864 (ACS Med Chem Lett, 2024)

Test system: Plasmodium falciparum
Experiment: Antiplasmodial activity against Plasmodium falciparum NF54 infected in human erythrocytes measured after 48 hrs by [3H]hypoxanthine incorporation assay
Type: functional, organism-based
Conditions: NF54, Erythrocyte

For `FC1CN(CCc2ccc(-c3noc(C(F)(F)F)n3)cc2)CCC1Nc1nc2ccccc2[nH]1` (stereo unspecified), the IC50 was 219 nM.
